The source of these data is patent publication US7977354B2, “Heterocyclic compounds, their preparation and their use as medicaments, in particular as anti-alzheimer agents” (priority 2005, dated 2011).

Data set [1] concerns the target T1, human acetylcholinesterase (Homo sapiens, UniProt P22303).
T1 construct: human erythrocyte membranes as a AChE source; from tissue; host or cells: human erythrocyte membranes
Put plainly: biochemical. It counts as biochemical. As to conditions: for Inhibition of human acetylcholinesterase (apparent IC50), result in words: tested until solubility limit.

Data set [2] relates to muscarinic receptors. Put plainly: Muscarinic receptors binding, radioligand [3H]-N-methylscopolamine, rat striatal membranes. As to conditions: at 10^−5 M. How it is done:
The ability of prodrugs of formula G and/or inhibitors of formula G+ to nonselectively bind muscarinic receptors was evaluated with conventional radioligand binding method.
The ability of bio precursors and/or inhibitors to nonselectively bind muscarinic receptors was evaluated with conventional radioligand binding method.
The assay mixture (PBS Buffer, 300 μL), rat striatal membranes as a muscarinic receptors source (1 g/L, 100 μL), unknown compound at various concentrations (50 μL) and ^3H—N-methylscopolamine as specific radioligand of muscarinic receptors. The 60.0 minutes incubation time at room temperature was selected after preliminary experiments performed to ensure that the equilibrium between studied ligand and radioligand on muscarinic receptors is reached. The reaction was stopped by rapid vacuum filtration through Whatman GF/C filter paper (pre-soaked in a solution of polyethylenimine (0.1%) to reduce binding to filters). Filters were subsequently washed with ice-cold buffer (PBS Buffer, 3×1.5 mL) and placed overnight in 3 mL of Ready-Safe scintillation cocktail (Beckman Coulter, Inc.). Radioactivity was measured using a Wallac liquid scintillation counter. Each experiment was carried out twice in duplicate.

For data set [3], the system named is Swiss albinos mice. The data set is described as follows: Acute toxicity in mice. The format is in vivo. As to conditions: female and male Swiss albinos mice, intraperitoneal injection; compound 67 tested under its inclusion form as compound 82. The method, then:
The Acute toxicity studies were carried out using female and male Swiss albinos mice (25-35 g). Most of the compounds show a very low toxicity, namely with a DL50 higher than 10 mg/kg. […] The pharmacokinetic study was carried out using female and male Swiss albinos mice for the determination of half-life and distribution volume of a compound of the invention
The toxicity studies were carried out using female and male Swiss albinos mice (25-35 g). Animals were kept in a temperature-controlled environment (23±2° C.) with a 12 h light-dark cycle and food and water were freely available. The animals were divided into one control group and five treated groups, each group consisting of six animals. The control group received saline and each treated group received the studied ligand in a dose of 1, 3, 10, 30 and 100 mg/kg by intraperitoneal injection. The animals were observed continuously for 3 h, and then they were observed each hour during 72 h after administering the compound in order to observe any changes in general behaviour or other physiological activities. At the end of the experiment, animals were sacrificed by cervical displacement.

Data set [4] is described as follows: Pharmacokinetic: half-life and distribution volume in mice, plasma HPLC. As to conditions: both, Swiss albino, mouse, in vivo, ip, 10 mg/kg.
[5] abbreviates: human erythrocyte membranes, acetylthiocholine iodide, pH 7.4, 10 min, room temperature, read-out: Inhibition of human acetylcholinesterase (apparent IC50).

pIC50: −log10 of the molar value. Like-named read-outs stand apart in the source and are kept apart here.

T1 sequence (P22303 32-617 isoform P22303-2 limits assumed): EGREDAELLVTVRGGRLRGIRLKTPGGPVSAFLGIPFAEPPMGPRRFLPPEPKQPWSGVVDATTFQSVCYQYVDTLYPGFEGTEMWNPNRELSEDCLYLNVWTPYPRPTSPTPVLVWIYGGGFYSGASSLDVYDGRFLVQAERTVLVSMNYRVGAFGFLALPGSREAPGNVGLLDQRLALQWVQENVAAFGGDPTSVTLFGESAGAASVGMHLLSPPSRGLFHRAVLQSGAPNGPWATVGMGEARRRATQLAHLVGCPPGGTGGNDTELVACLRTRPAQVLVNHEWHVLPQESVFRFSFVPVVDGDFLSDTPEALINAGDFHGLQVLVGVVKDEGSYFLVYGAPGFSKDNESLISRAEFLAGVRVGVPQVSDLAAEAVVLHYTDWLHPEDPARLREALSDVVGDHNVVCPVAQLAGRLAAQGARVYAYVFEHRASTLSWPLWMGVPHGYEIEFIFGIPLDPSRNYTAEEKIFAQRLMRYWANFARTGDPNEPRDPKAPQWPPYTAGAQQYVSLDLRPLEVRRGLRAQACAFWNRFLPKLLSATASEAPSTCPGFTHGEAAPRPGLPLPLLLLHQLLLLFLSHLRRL

What is called pIC50 is −log10 of the IC50, conventionally taken in molar units. `CNC(=O)c1cc2c(OC(=O)N(C)C)cccc2[n+](C)c1` [Compound 68D, 5-(N,N-dimethylcarbamate)-1-methyl-3-(N-methylcarboxamido)quinolinium triflate]: in data set [1] (setting [5]), the pIC50 is 7.54. Also, the “Displacement of [^3H] N-methylscopolamine from muscarinic receptors” value (from here on “Displacement”) in data set [2] was 0% à 10^−5 M.

As to `CN(C)C(=O)Oc1cccc2c1cc(C(=O)N(C)C)c[n+]2C` [Compound 69D, 5-(N,N-dimethylcarbamate)-3-(N,N-dimethylcarboxamido)-1-methylquinolinium triflate], the negative logarithm of the IC50 (pIC50) in data set [1] (setting [5]) was 7.82. For the same compound, the “Displacement” value in data set [2] worked out at 0% à 10^−5 M. In data set [1], `COC(=O)c1cc2c(OC(=O)N(C)C)cccc2[n+](C)c1` [Compound 67E, Methyl 5-(N,N-dimethylcarbamate)-1-methylquinolinium-3-carboxylate triflate] had a pIC50 of 6.96. Further, the “Displacement” value in data set [2] is listed as 0% at 10^−5 M. For `COC(=O)c1cc2cccc(OC(=O)N(C)C)c2[n+](C)c1` [Example 74, Methyl 8-(N,N-Dimethylcarbamate)-1-Methylquinolinium-3-Carboxylate Triflate], the pIC50 in data set [1] (setting [5]) is 5.85. Turning to `CN(C)C(=O)Oc1cccc2c1CC(C(=O)N1CCOCC1)=CN2C` [Example 70, morpholine 4-[5-(N,N-dimethylcarbamate)-1-methyl-1,4-dihydroquinolyl-3-carbonyl]], the “Inhibition of human acetylcholinesterase (apparent IC50), result in words” value (shortened to “Inhibition of human acetylcholinesterase”) in data set [1] (human erythrocyte membranes) is listed as “No inhibition until”. The “Displacement” value in data set [2] was determined as 0% à 10^−5 M. The corresponding values for `CNC(=O)C1=CN(C)c2cccc(OC(=O)N(C)C)c2C1` [Example 68, 5-(N,N-dimethylcarbamate)-1-methyl-3-(N-methylcarboxamido)-1,4-dihydroquinoline] are “No inhibition until” and 0% at 10^−5 M. With `CCOC(=O)c1cc2c(OC(=O)N(C)C)cccc2[n+](C)c1` [Compound 2E, Ethyl 5-(N,N-dimethylcarbamate)-1-methylquinolinium-3-carboxylate triflate], the pIC50 in data set [1] (setting [5]) was 8.15. For the same compound, the “Displacement” value in data set [2] worked out at 0% at 10^−5 M. With `COC(=O)c1cc2c(OC(=O)N(C)C)cc(OC(=O)N(C)C)cc2[n+](C)c1` [Example 73, Methyl 5,7-Bis(N,N-Dimethylcarbamate)-1-Methylquinolinium-3-Carboxylate Triflate], the pIC50 in data set [1] (setting [5]) is less than 5.00. Turning to `CCOC(=O)C1=CN(C)c2cccc(OC(=O)N(C)C)c2C1` [Example 2, ethyl 1-methyl-5-(N,N-dimethylcarbamate)-1,4-dihydroquinoline-3-carboxylate], the “Inhibition of human acetylcholinesterase” value in data set [1] (human erythrocyte membranes) is given as “No inhibition until”. Moreover, the “Displacement” value in data set [2] is recorded as 0% at 10^−5 M. Regarding `CCNC(=O)Oc1cccc2c1CC(C(=O)OC)=CN2C` [Example 76, Methyl 1-Methyl-5-(N-Ethylcarbamate)-1,4-Dihydroquinoline-3-Carboxylate], the “Inhibition of human acetylcholinesterase” value in data set [1] (human erythrocyte membranes) was “No inhibition until”.

With `CCCNC(=O)c1cc2ccc(OC(=O)N(C)C)cc2[n+](C)c1` [Compound 78C, 7-(N,N-dimethylcarbamate)-3-(N-propylcarboxamido)-1-methylquinolinium triflate], the pIC50 in data set [1] (setting [5]) was 4.30. In addition, in data set [2], the “Displacement” value is recorded as 20% at 10^−5 M. Consider `CN(C)C(=S)Oc1cccc2c[n+](C)ccc12` [Example 75, 2-Methyl-5-(N,N-Dimethylthiocarbamate)-O-Isoquinolinium Triflate], for which the pIC50 in data set [1] (setting [5]) is less than 5.00.

`CCOC(=O)c1cc2cccc(OC(=O)N(C)C)c2[n+](C)c1` [Example 77, Ethyl 1-Methyl-8-(N,N-Dimethylcarbamate)Quinolinium-3-Carboxylate Triflate]: the pIC50 in data set [1] (setting [5]) was 5.10.

The term half-life denotes how long it takes for the measured level to halve. A high value points to slow decline. Turning to `COC(=O)C1=CN(C)c2cccc(OC(=O)N(C)C)c2C1` [Example 67, methyl 5-(N,N-dimethylcarbamate)-1-methyl-1,4-dihydroquinoline-3-carboxylate], in data set [1] (human erythrocyte membranes), the “Inhibition of human acetylcholinesterase” value is “No inhibition until”. The “Displacement” value in data set [2] turned out to be 0% at 10^−5 M. The “Acute toxicity (DL50)” value in data set [3] is 25 mg/kg. Further, in data set [4], the C0 is 0.806 µM. Moreover, in data set [4] (Plasmatic half-life time T1/2, mice, intraperitoneal injection of 10 mg/kg of compound 67 under its inclusion form (example 82)), the half-life was 14 min. Take `CCOC(=O)c1cc2ccc(OC(=O)N(C)C)cc2[n+](C)c1` [Compound 1D, ethyl 1-methyl-7-(N,N-dimethylcarbamate)quinolinium-3-carboxylate triflate]: the pIC50 in data set [1] (setting [5]) was 6.30. Moreover, the “Displacement” value in data set [2] is 0% at 10^−5 M. With `CCNC(=O)Oc1cccc2c1cc(C(=O)OC)c[n+]2C` [Compound 76B, Methyl 5-(N-ethylcarbamate)-1-methylquinolinium-3-carboxylate triflate], the pIC50 in data set [1] (setting [5]) is 5.22. Turning to `CCOC(=O)C1=CN(C)c2cc(OC(=O)N(C)C)ccc2C1` [Example 1, ethyl 1-methyl-7-(N,N-dimethylcarbamate)-1,4-dihydroquinoline-3-carboxylate], in data set [1] (human erythrocyte membranes), the “Inhibition of human acetylcholinesterase” value was “No inhibition until”. The “Displacement” value in data set [2] is 0% at 10^−5 M.

With `CCCNC(=O)C1=CN(C)c2cc(OC(=O)N(C)C)ccc2C1` [Example 78, 1-Methyl-3-(N-Propylcarboxamido)-7-(N,N-Dimethylcarbamate)-1,4-Dihydroquinoline], the “Inhibition of human acetylcholinesterase” value in data set [1] (human erythrocyte membranes) is “No inhibition until”. Also, the “Displacement” value in data set [2] is given as 25% at 10^−5 M. In the case of `CN(C)C(=O)Oc1cccc2c[n+](C)ccc12` [Example 71, 5-(N,N-dimethylcarbamate)-2-methylisoquinolinium triflate], the pIC50 in data set [1] (setting [5]) was 7.30. Same read-out and setting: as for `CN(C)C(=O)Oc1ccc2cc[n+](C)cc2c1` [Example 72, 7-(N,N-Dimethylcarbamate)-2-Methylisoquinolinium Triflate], the figure is 5.30. For `CN(C)C(=O)Oc1cccc2c1cc(C(=O)N1CCOCC1)c[n+]2C` [Compound 70D, 5-(N,N-dimethylcarbamate)-1-methyl-3-(morpholinocarboxy)quinolinium triflate], the pIC50 in data set [1] (setting [5]) was 6.07. Besides, the “Displacement” value in data set [2] is 0% à 10^−5 M.

Turning to `CCOC(=O)c1ccc[n+](Cc2ccc(OC(=O)N(C)C)cc2)c1` [Example 80], the pIC50 in data set [1] (setting [5]) was 6.64.
